Results on eleven molecules are retold here after US12560588B2, “High-efficiency screening method for RNA-targeting drugs using nanopores” (KOREA RESEARCH INSTITUTE OF BIOSCIENCE AND BIOTECHNOLOGY, priority 2020, dated 2026).

Assay [1] relates to adenine-sensing riboswitch (ARS). The assay can be described thus: α-hemolysin nanopore measurement of ARS with ligand. Format: binding, Vibrio vulnificus. To be noted: for dwell time relative to free ARS: type-II translocation event, individual compounds. The protocol: RNAs were synthesized by Integrated DNA Technologies (Coralville, IA, USA). All RNAs were dialyzed against 10 mM potassium phosphate (pH 6.2) buffer for at least 12 hours. After heating RNAs at 95° C. for 5 minutes, it was cooled quickly in the ice and annealed. The nanopore experiment was performed at RNA concentration of 10 to 500 nm. α-hemolysin (α-HL) protein was purchased from List Biological Laboratories Inc. (CAMPBELL, CA, USA). 1,2-diphytanoylsn-glycero-3-phosphocholine(DPhPC) was purchased from Avanti Polar Lipids (Alabaster, Al, USA).
Specifically, in the buffer containing 10 mM potassium phosphate (pH 6.2), 2 mM MgCl2 and 1M KCl, free ARS or ARS-adenine complex was added to the cis face of a lipid bilayer with a single α-HL nanopore. If the voltage of (+) 100 mV is applied on the nanopore, the free ARS or the ARS-adenine complex is driven by electrophoresis to block the ion current. The nanopore events of the free ARS and ARS-adenine complex were statistically analyzed (a to c in FIG. 2).
The average I/I0 value of level 1 (III1) of the type-II event is 0.45, which corresponds to about 50% of level 2 (III2). After separating the types I and II nanopore events of the complex, each type of event was statistically analyzed. The type I and II events of the ARS-adenine complex is different in the average value and dwell time of I/I0 ((b) to (c) in FIG. 3).

The test system of assay [2] is ARS. The assay is described as follows: 1D CPMG ligand-observed NMR. The note with it: absence vs presence of ARS.
The subject of assay [3] is TPP riboswitch (TRS). In kind it is binding.
Assay [4] deals with 5′L-iav-RNA. Format: binding, influenza A virus.
Assay [5] deals with adenine-sensing riboswitch (ARS). The assay is described as follows: 1D 1H NMR of ARS with adenine. The note with it: high salt concentration (1M KCl).
Assay [6] has as its system PreQ1-sensing riboswitch (PreQ1 rs). The assay is described as follows: α-hemolysin nanopore measurement of PreQ1 rs with PreQ1. In kind it is binding. How it is done:
The PreQ1 rs is synthesized by Integrated DNA Technologies (Coralville, IA, USA). The PreQ1 rs used in the test was designed by adding GG sequences to the 5′ end of the 34nt basic aptamer sequences for the ease of secondary verification (NMR analysis, etc.) of the riboswitch structural change by binding of the PreQ1 ligand. The PreQ1 rs RNAs were dialyzed against 10 mM potassium phosphate (pH 6.2) buffer for at least 12 hours. After heating RNAs at 95° C. for 5 minutes, it was cooled quickly in the ice and annealed. All nanopore tests were performed at 500 nM concentration.
Specifically, in the buffer containing 10 mM potassium phosphate (pH 6.2) and 1M KCl, 500 nM of free PreQ1 rs was added to the cis face of a lipid bilayer with the α-HL nanopore. It was observed that the PreQ1 rs was driven by electrophoresis to block the ion current if the (+) voltage was applied on the nanopore.
Since then, to confirm whether the interaction of ligands can be detected at a single molecule level, the PreQ1 rs-PreQ1 complex was added to the cis face of the lipid bilayer with the nanopore in the buffer containing 10 mm phosphate (pH 6.2) and 1M KCl. When the (+) voltage is applied to the nanopore, the ion current is blocked as the PreQ1 rs-PreQ1 complex enters the nanopore by electrophoresis. In the current blockade event of the PreQ1 rs-PreQ1 complex, both type A and type B events were observed, and active nanopore current traces were confirmed (FIG. 17, bottom panel).

Assay [7] relates to 3′L-iav-RNA. Format: binding, influenza A virus.

In the case of `O=C(O)[C@H]1O[C@@H](Oc2cc(O)c3c(=O)cc(-c4ccc(O)c(O)c4)oc3c2)[C@H](O)[C@@H](O)[C@@H]1O` [NC4, luteolin-7-glucuronide], the “nanopore event type observed” value in assay [1] (ARS with ligand) is on record as “types II translocation event”. Besides, in assay [1], the “dwell time relative to free ARS” value is on record as “more than twice”. Moreover, the “binding to ARS by 1D CPMG” value in assay [2] was “definite binding”.
As for `Nc1ncnc2c1ncn2[C@@H]1O[C@H](COP(=O)(O)OP(=O)(O)OP(=O)(O)O)[C@@H](O)[C@H]1O` [ATP], in assay [2], the “binding to ARS by 1D CPMG” value is listed as “non-binding”.
As to `Cc1ncc(C[n+]2csc(CCO[P@](=O)(O)OP(=O)(O)O)c2C)c(N)n1` [TPP, thiamine pyrophosphate], in assay [3], the average dwell time amounted to 0.22 ms, the “dwell time of type-I event” value was found to be 0.21 ms, the “dwell time of type-II event” value turned out to be 4.37 ms and the “type-II dwell time increase versus free TRS” value stood at 1.3 times. For the same molecule, in assay [3], the type-II event rate stood at 14.3% and the “type-II event rate increase versus free TRS” value was 1.6 times.
Neomycin: in assay [4], the “average nanopore dwell time” value was 3.48 ms and the “dwell time increase versus free viral RNA” value is given as “about 8.1 times”.
For the molecule `O=C(/C=C/c1ccc(O)c(O)c1)O[C@H]1[C@H](O)C[C@](O)(C(=O)O)C[C@H]1OC(=O)/C=C/c1ccc(O)c(O)c1` [NC2, 4,5-dicaffeoylquinic acid], the “nanopore event type observed” value in assay [1] (ARS with ligand) is “types II translocation event”. Also, in assay [1], the “dwell time relative to free ARS” value is on record as “more than twice”. The “binding to ARS by 1D CPMG” value in assay [2] is “definite binding”.
Regarding `Nc1ncnc2nc[nH]c12` [adenine], in assay [5], the “binding to ARS by imino proton peaks” value is on record as “bound”. Moreover, in assay [1] (ARS with ligand), the “nanopore event type observed” value is “mixture of the type I and type-II events”. Also, the “average dwell time (td)” value in assay [1] (ARS with ligand, all events, +100 mV, 1M KCl) was 0.63 ms. In addition, in assay [1] (ARS-adenine complex), the “dwell time of the type-I event (tI)” value came out at 0.28 ms and the “dwell time of the type-II event (tII)” value is 2.14 ms. In assay [1] (adenine added to MIX-3), the “nanopore dwell time of the type-II event (tII)” value came out at 2.52 ms and the “type-II dwell time relative to free ARS” value is on record as “up to 6.6 times”. Besides, the “type-II dwell time relative to the type-I event” value in assay [1] (adenine-bound ARS) was 7.64 times.
Take `NCCCS(=O)(=O)O` [tramiprosate]: the “binding to ARS by 1D CPMG” value in assay [2] is reported as “non-binding”.
On to `NCC1C=Nc2nc(N)[nH]c(=O)c21` (stereo not shown) [PreQ1, 7-aminomethyl-7-deazaguanine], for which, in assay [6] (PreQ1 rs-PreQ1 complex), the “type A event rate” value worked out at 26.5% and the “type B event rate” value amounted to 73.5%. Moreover, the “type B event rate increase versus free PreQ1 rs” value in assay [6] (ligand-bound state) is on record as “about 1.5 times”.
For `O=C(/C=C/c1ccc(O)c(O)c1)O[C@@H]1[C@H](O)C[C@@](O)(C(=O)O)C[C@H]1OC(=O)/C=C/c1ccc(O)c(O)c1` [NC1, 3,4-dicaffeoylquinic acid], in assay [1] (ARS with ligand), the “nanopore event type observed” value is reported as “types II translocation event”. Moreover, in assay [1], the “dwell time relative to free ARS” value is listed as “more than twice”. Moreover, in assay [2], the “binding to ARS by 1D CPMG” value was “definite binding”.
As for `COc1cc2nc(N3CCNCC3)nc(N)c2cc1OC` [DPQ, 6,7-dimethoxy-2-(1-piperazinyl)-4-quinazolinamine], in assay [7], the “nanopore average dwell time” value is reported as 9.52 ms. Further, in assay [4], the “average nanopore dwell time” value is recorded as 1.14 ms and the dwell time amounted to 1.47 ms.
With `Oc1cc(O)c2c(c1)O[C@H](c1ccc(O)c(O)c1)[C@H](O)C2` [(−)-epicatechin], the “binding to ARS by 1D CPMG” value in assay [2] is reported as “non-binding”.
